Measured values: US9371321B2, “Azaindole derivatives” (Takeda Pharmaceutical Company Limited, priority 2014, dated 2016)
Values after ≈ are worked out from the molar mass of the structure shown.

Molecular target: T1, PI3Kδ (recombinant GST-tagged PIK3CD co-expressed with PIK3R1, p85α) (Homo sapiens, UniProt O00329)
T1 construct: The protein is full length and co-expressed with untagged PIK3R1; GST; purchased Invitrogen PV5274
Assay: modified PIK3CD Adapta TR-FRET kinase assay (PI3Kδ inhibition)
Format: biochemical
Settings: 2 μM ATP, 50 μM PIP2, room temperature, 1 hour
Experimental: The activity of compounds as PI3Kδ inhibitors may be determined by a variety of methods, including in vitro and in vivo methods. The following in vitro assay measures a test compound's ability to inhibit PI3Kδ-mediated phosphorylation of PIP2 and ATP.
Recombinant GST-tagged PIK3CD is purchased from Invitrogen (Part Number: PV5274). The protein is full length and co-expressed with untagged PIK3R1, phosphoinositide-3-kinase regulatory subunit 1 (p85α). The protein is stored at −20° C. in 50 mM TRIS (pH 7.5), 150 mM NaCl, 0.5 mM EDTA, 0.02% Triton® X-100, 2 mM DTT, and 50% glycerol.
A modified PIK3CD Adapta® assay (Invitrogen, Carlsbad, Calif.) is used to measure PI3Kδ inhibition of the example compounds. The assay has two phases. In the first phase, kinase reaction components, which include the enzyme (PIK3CD), substrates (PIP2, ATP), test compound (inhibitor), and assay buffer are added to each well, and the reaction is allowed to incubate for a pre-determined period of time. After reaction, a detection solution composed of a Eu (europium)-labeled anti-ADP antibody, Alexa Fluor® 647-labeled ADP tracer, and EDTA (to stop the kinase reaction) is added to each assay well. In this second phase, ADP formed by the kinase reaction displaces the Alexa Fluor® 647-labeled ADP tracer from the antibody, resulting in a decrease in time-resolved fluorescence resonance energy transfer (TR-FRET) signal. In the presence of the inhibitor, the amount of ADP formed by the kinase reaction is reduced, and the resulting intact antibody-tracer interaction maintains a high TR-FRET signal.
The assay uses black Greiner® 384-well plates (784076). The reaction buffer contains 50 mM Hepes (pH 7.5), 3 mM MgCl2, 1 mM EGTA, 100 mM NaCl, 0.03% CHAPS; 2 mM DTT is added fresh prior to each experiment. Enzyme (4 μL, estimated 1.5 nM in buffer) is first added to the wells of the plate. Next, test compounds (2 μL) from a source plate (5% dilution plate) are introduced into the wells. The final DMSO concentration in each assay well is 1%. […] Other wells contain test compounds serially diluted across the plate 11 times for a total of 12 data points. The kinase reactions are carried out at room temperature and are initiated by the addition of 4 μL of solution containing 2 μM ATP and 50 μM PIP2. Each reaction is stopped after 1 hour±10 minutes via addition of […], which contains a final assay concentration of 3 nM Alexa Fluor® 647-labeled ADP tracer, 2 nM Eu-anti-ADP Antibody, and 10 mM EDTA. After allowing the solutions to equilibrate for 30±10 minutes, a PHERAstar plate reader is used to excite the Eu donor (at 337 nm) and to detect emission from the Alexa Fluor® 647 at 665 nm. This emission signal is referenced or “ratioed” to the emission from Eu at 620 nm. The emission ratio (665 nm/620 nm) from each well is collected and converted to percent conversion using a standard curve for the assay conditions: % conversion=B*(C+A−emission ratio)/(emission ratio−C), where “A” and “C” are the maximum and minimum values of the emission ratio obtained from the standard curve of emission ratio vs. % conversion (ATP-ADP); “B” is the emission ratio corresponding to the % conversion at the EC50 value for the ADP Tracer-Eu anti-ADP antibody complex. The percent inhibition for a given inhibitor concentration is computed from % conversion for the reaction and for the positive and negative controls. Corresponding IC50 values (molar concentration at 50% inhibition) are calculated by non-linear curve fitting of the compound concentrations and values of percent inhibition to the standard IC50 equation.

T1 sequence (O00329 whole entry): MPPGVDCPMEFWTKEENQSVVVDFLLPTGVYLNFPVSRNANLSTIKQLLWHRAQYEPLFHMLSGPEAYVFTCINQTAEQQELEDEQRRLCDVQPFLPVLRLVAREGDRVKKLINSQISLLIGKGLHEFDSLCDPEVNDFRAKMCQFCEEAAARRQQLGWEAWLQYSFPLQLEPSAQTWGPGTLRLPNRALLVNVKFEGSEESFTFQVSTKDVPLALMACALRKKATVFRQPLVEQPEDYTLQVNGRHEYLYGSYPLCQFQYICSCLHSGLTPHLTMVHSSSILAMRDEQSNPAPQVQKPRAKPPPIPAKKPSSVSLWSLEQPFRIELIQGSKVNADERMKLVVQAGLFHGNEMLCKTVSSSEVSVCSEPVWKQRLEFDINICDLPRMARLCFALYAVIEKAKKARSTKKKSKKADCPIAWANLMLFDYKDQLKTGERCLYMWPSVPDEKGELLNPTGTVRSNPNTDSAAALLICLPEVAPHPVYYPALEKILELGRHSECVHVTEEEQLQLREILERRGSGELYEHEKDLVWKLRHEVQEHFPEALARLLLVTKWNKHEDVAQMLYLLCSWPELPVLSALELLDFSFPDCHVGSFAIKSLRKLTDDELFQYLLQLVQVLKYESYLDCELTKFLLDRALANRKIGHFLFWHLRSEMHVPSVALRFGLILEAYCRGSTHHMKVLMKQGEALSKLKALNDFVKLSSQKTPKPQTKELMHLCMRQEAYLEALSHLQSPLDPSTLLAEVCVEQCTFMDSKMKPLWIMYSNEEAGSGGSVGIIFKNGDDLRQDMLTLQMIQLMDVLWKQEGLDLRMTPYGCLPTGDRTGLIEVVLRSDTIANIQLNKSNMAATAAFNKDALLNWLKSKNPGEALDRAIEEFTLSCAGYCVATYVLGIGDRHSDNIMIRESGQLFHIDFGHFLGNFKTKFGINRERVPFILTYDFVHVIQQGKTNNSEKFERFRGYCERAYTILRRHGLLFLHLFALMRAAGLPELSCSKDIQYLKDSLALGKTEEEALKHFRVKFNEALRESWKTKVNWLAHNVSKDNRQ
T1 sequence (P27986 whole entry partner): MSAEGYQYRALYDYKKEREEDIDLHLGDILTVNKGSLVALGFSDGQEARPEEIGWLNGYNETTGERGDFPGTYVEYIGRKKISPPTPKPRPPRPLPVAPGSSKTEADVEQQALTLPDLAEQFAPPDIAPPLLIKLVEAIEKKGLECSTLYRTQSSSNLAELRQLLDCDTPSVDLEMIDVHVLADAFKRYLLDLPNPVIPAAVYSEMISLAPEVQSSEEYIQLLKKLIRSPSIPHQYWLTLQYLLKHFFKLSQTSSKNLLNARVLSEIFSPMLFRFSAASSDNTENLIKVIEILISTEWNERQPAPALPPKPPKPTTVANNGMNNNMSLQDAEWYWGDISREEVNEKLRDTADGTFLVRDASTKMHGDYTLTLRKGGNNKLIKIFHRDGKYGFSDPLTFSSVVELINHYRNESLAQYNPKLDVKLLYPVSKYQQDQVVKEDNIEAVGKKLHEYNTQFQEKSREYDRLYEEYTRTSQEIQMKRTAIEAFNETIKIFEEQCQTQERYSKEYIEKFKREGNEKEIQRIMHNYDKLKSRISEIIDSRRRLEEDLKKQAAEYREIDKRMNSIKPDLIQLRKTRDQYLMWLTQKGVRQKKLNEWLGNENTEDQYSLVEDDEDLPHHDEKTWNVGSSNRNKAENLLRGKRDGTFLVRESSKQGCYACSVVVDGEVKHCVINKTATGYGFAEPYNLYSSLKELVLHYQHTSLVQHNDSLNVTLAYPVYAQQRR

Point of comparison: `Cc1nc(N)nc(N[C@@H](C)c2nc3ccn(C)c3cc2NC2CCNCC2)c1C#N` [Example 15, (S)-2-Amino-4-methyl-6-((1-(1-methyl-6-(piperidin-4-ylamino)-1H-pyrrolo[3,2-b]pyridin-5-yl)ethyl)amino)pyrimidine-5-carbonitrile], IC50 5.5 nM. Against it:
- CCc1nc(N)nc(N[C@@H](C)c2nc3ccn(C)c3cc2N2CCNCC2)c1C#N [Example 20, (S)-2-Amino-4-ethyl-6-((1-(1-methyl-6-(piperazin-1-yl)-1H-pyrrolo[3,2-b]pyridin-5-yl)ethyl)amino)pyrimidine-5-carbonitrile] — 40-fold higher, 220 nM
- Cc1nc(N)nc(N[C@@H](C)c2nc3ccn(C)c3cc2C2=CCC(N)CC2)c1C#N (stereo partly drawn) [Example 17, 2-Amino-4-(((1S)-1-(6-(4-aminocyclohex-1-en-1-yl)-1-methyl-1H-pyrrolo[3,2-b]pyridin-5-yl)ethyl)amino)-6-methylpyrimidine-5-carbonitrile] — 1.5-fold higher, 8.5 nM
- Cc1nc(N)nc(N[C@@H](C)c2nc3ccn(C)c3cc2N2CC[C@@H](N)C2)c1C#N (single isomer, unassigned) [Example 7] — within 1.5-fold, 4.2 nM
- CC[C@H](Nc1nc(N)nc(C)c1C#N)c1nc2ccn(C)c2cc1N1CCNCC1 [Example 19, (S)-2-Amino-4-methyl-6-((1-(1-methyl-6-(piperazin-1-yl)-1H-pyrrolo[3,2-b]pyridin-5-yl)propyl)amino)pyrimidine-5-carbonitrile] — 6.9-fold lower, 0.8 nM
- Cc1nc(N)nc(N[C@@H](C)c2nc3ccn(C)c3cc2N2CCN[C@@H](C)C2)c1C#N [Example 6, 2-Amino-4-methyl-6-((S)-1-(1-methyl-6-((S)-3-methylpiperazin-1-yl)-1H-pyrrolo[3,2-b]pyridin-5-yl)ethylamino)pyrimidine-5-carbonitrile] — within 1.5-fold, 5 nM
- CN[C@H]1CCN(c2cc3c(ccn3C)nc2[C@H](C)Nc2nc(N)nc(C)c2C#N)C1 [Example 3, 2-Amino-4-methyl-6-((S)-1-(1-methyl-6-((S)-3-(methylamino)pyrrolidin-1-yl)-1H-pyrrolo[3,2-b]pyridin-5-yl)ethylamino)pyrimidine-5-carbonitrile] — within 1.5-fold, 5.6 nM
- Cc1nc(N)nc(N[C@@H](C)c2nc3ccn(C)c3cc2N2CCC[C@@H](N)C2)c1C#N (single isomer, unassigned) [Example 4] — 1.9-fold lower, 2.9 nM
- C[C@H](Nc1nc(N)nc(N)c1C#N)c1nc2ccn(C)c2cc1N1CCNCC1 [Example 13, (S)-2,4-Diamino-6-(1-(1-methyl-6-(piperazin-1-yl)-1H-pyrrolo[3,2-b]pyridin-5-yl)ethylamino)pyrimidine-5-carbonitrile] — 5.5-fold lower, 1 nM
- Cc1nc(N)nc(N[C@@H](C)c2nc3ccn(C)c3cc2N2CCN[C@H](C)C2)c1C#N [Example 9, 2-Amino-4-methyl-6-((S)-1-(1-methyl-6-((R)-3-methylpiperazin-1-yl)-1H-pyrrolo[3,2-b]pyridin-5-yl)ethylamino)pyrimidine-5-carbonitrile] — 2.5-fold lower, 2.2 nM
- Cc1nc(N)nc(N[C@@H](C)c2nc3ccn(C)c3cc2[C@@H]2CCNC2)c1C#N (single isomer, unassigned) [Example 10] — 1.6-fold lower, 3.5 nM
- Cc1nc(N)nc(N[C@@H](C)c2nc3ccn(C)c3cc2C2CCNCC2)c1C#N [Example 12, (S)-2-Amino-4-methyl-6-(1-(1-methyl-6-(piperidin-4-yl)-1H-pyrrolo[3,2-b]pyridin-5-yl)ethylamino)pyrimidine-5-carbonitrile] — 3.9-fold lower, 1.4 nM
- Cc1nc(N)nc(N[C@@H](C)c2nc3ccn(C)c3cc2[C@H]2CCNC2)c1C#N (single isomer, unassigned) [Example 11] — 4.2-fold lower, 1.3 nM
- Cc1nc(N)nc(N[C@@H](C)c2nc3ccn(C)c3cc2C2CCC(N)CC2)c1C#N (mixture of isomers) [Example 18, (S)-2-Amino-4-((1-(6-(4-aminocyclohexyl)-1-methyl-1H-pyrrolo[3,2-b]pyridin-5-yl)ethyl)amino)-6-methylpyrimidine-5-carbonitrile] — 3.2-fold lower, 1.7 nM
- (S)-2-Amino-4-methyl-6-(1-(1-methyl-6-(piperazin-1-yl)-1H-pyrrolo[3,2-b]pyridin-5-yl)ethylamino)pyrimidine-5-carbonitrile [Example 1] — 7.9-fold lower, 0.7 nM
- Cc1nc(N)nc(N[C@@H](C)c2nc3ccn(C)c3cc2N2CCC[C@H](N)C2)c1C#N (single isomer, unassigned) [Example 5] — within 1.5-fold, 5.4 nM
- Cc1nc(N)nc(N[C@@H](C)c2nc3ccn(C)c3cc2N2CC[C@H](N)C2)c1C#N (single isomer, unassigned) [Example 8] — 2.1-fold lower, 2.6 nM
- 4-((S)-1-(6-((1S,4S)-2,5-Diazabicyclo[2.2.1]heptan-2-yl)-1-methyl-1H-pyrrolo[3,2-b]pyridin-5-yl)ethylamino)-2-amino-6-methylpyrimidine-5-carbonitrile [Example 14] — 9.2-fold lower, 0.6 nM
- Cc1nc(N)nc(N[C@@H](C)c2nc3ccn(C)c3cc2N(C)C2CNC2)c1C#N [Example 16, (S)-2-Amino-4-((1-(6-(azetidin-3-yl(methyl)amino)-1-methyl-1H-pyrrolo[3,2-b]pyridin-5-yl)ethyl)amino)-6-methylpyrimidine-5-carbonitrile] — 2.3-fold lower, 2.4 nM
- Cc1nc(N)nc(N[C@@H](C)c2nc3ccn(C)c3cc2N2CCCNCC2)c1C#N [Example 2, (S)-4-(1-(6-(1,4-Diazepan-1-yl)-1-methyl-1H-pyrrolo[3,2-b]pyridin-5-yl)ethylamino)-2-amino-6-methylpyrimidine-5-carbonitrile] — within 1.5-fold, 5 nM

Tested on: not given
Assay: not given
Settings: pH 6.8

With “4-((S)-1-(6-((1S,4S)-2,5-Diazabicyclo[2.2.1]heptan-2-yl)-1-methyl-1H-pyrrolo[3,2-b]pyridin-5-yl)ethylamino)-2-amino-6-methylpyrimidine-5-carbonitrile [Example 14]” the “Thermodynamic Solubility in JP2” value was greater than 1830 µg/mL.

Tested on: not listed separately
Assay: Thermodynamic solubility assay in JP2
Settings: JP2 (Japan Pharmacopoeia 2nd fluid for dissolution), 37 °C, pH 6.8, aqueous buffer, thermodynamic from solid
Experimental: Testing media for both assays are prepared as follows: • JP1 (Japan Pharmacopoeia 1st fluid for dissolution): In a 1 L volumetric flask, dissolve 2.0 g sodium chloride in about 500 mL deionized water. Add 84 mL of 1M hydrochloric acid and dilute to volume with deionized water. Mix thoroughly. • JP2 (Japan Pharmacopoeia 2nd fluid for dissolution): In a 1 L volumetric flask dissolve 6.806 g of anhydrous potassium phosphate monobasic in about 500 mL of deionized water. Add 23.6 mL of 1M sodium hydroxide and dilute to volume with deionized water. Mix thoroughly. • GCDC (20-mM sodium glycochenodeoxycholate in JP2): In a 50 mL volumetric flask, dissolve 0.475 g of sodium glycochenodeoxycholate with ˜30 mL JP2. Dilute to volume with additional JP2. Mix thoroughly. • Other pH buffers between pH 2-6 can also be prepared as additional testing media.
About 3 mg of compound is weighed into an HPLC vial. Testing medium (0.5 mL) is then added to the compound vial. The vial is sealed with a screw-on cap and placed in an incubator set at 37° C. with orbital shaking at 150 RPM for overnight equilibration. At the end of equilibration, the final pH is measured, and whether the compound is totally dissolved (clear solution) or not (solid in vial) is recorded. Then the sample mixture is transferred to a centrifuge tube with filter insert (0.45 μm nylon filter) and centrifuge filtered. The filtrate is diluted appropriately (2 to 50× dilution) before HPLC analysis. A calibration standard is prepared by dissolving ˜5 mg of compound in diluent and q.s. to volume in a 20 mL volumetric flask. A separate QC standard is prepared at about the same concentration. The default diluent is 1:1 acetonitrile/water. Alternative diluents such as 1:1 DMA/water and other mixtures may also be used depending on the solubility behavior of the compound. The calibration response factor is calculated by dividing the standard peak area with standard concentration. The sample solubility in a test medium is calculated by dividing the sample peak area with the corresponding standard response factor and multiplied by sample dilution factor. The response factor from QC standard is also calculated and compared with calibration standard. If the response factors of the calibration and QC standard differ by more than 5%, new calibration and QC standards should be prepared and samples are reanalyzed with new standards.

Point of comparison: `C[C@H](Nc1nc(N)nc(N)c1C#N)c1nc2ccn(C)c2cc1N1CCOCC1` [B, reference compound], solubility thermodynamic 26 µg/mL (≈ 66.1 µM). Against it:
- Cc1nc(N)nc(N[C@@H](C)c2nc3ccn(C)c3cc2N2CCN[C@@H](C)C2)c1C#N [Example 6, 2-Amino-4-methyl-6-((S)-1-(1-methyl-6-((S)-3-methylpiperazin-1-yl)-1H-pyrrolo[3,2-b]pyridin-5-yl)ethylamino)pyrimidine-5-carbonitrile] — 67-fold higher, 1730 µg/mL (≈ 4270 µM)
- Cc1nc(N)nc(N[C@@H](C)c2nc3ccn(C)c3cc2C2CCNCC2)c1C#N [Example 12, (S)-2-Amino-4-methyl-6-(1-(1-methyl-6-(piperidin-4-yl)-1H-pyrrolo[3,2-b]pyridin-5-yl)ethylamino)pyrimidine-5-carbonitrile] — 5.8-fold higher, 150 µg/mL (≈ 384 µM)
- C[C@H](Nc1nc(N)nc(N)c1C#N)c1nc2ccn(C)c2cc1C1CCOCC1 [A, reference compound] — within 1.5-fold, 20 µg/mL (≈ 51 µM)

Same assay, conditions: solid free base, JP2 (Japan Pharmacopoeia 2nd fluid), 37° C., overnight equilibration

For “(S)-2-Amino-4-methyl-6-(1-(1-methyl-6-(piperazin-1-yl)-1H-pyrrolo[3,2-b]pyridin-5-yl)ethylamino)pyrimidine-5-carbonitrile [Example 1]”, the “Thermodynamic Solubility in JP2” value was 2195 µg/mL.
